Results as given in US7544365B2, “TRPV1+ sensory neurons control of β-cells stress and islet inflammation in diabetes” (priority 2006, dated 2009).
“Also recorded” adds a separate entry of the source.

What was measured:
TRPV1^+ sensory neurons = assay: Glucose challenge and insulin tolerance after capsaicin removal of TRPV1^+ sensory neurons; format: in vivo, NOD.scid / NOD mice
Source text: We compared measures of β-cell function in untreated and in capsaicin treated NOD.scid mice, and in C57/BL6J (‘B6’) and B6.TRPV1^−/− mice, the latter with a normal complement of sensory afferent neurons but absent TRPV1 expression (Caterina et al., 2000). NOD.scid mice were used to ascertain absence of lymphoid islet infiltration in NOD experiments, CD1 mice provided controls (FIGS. 17A-17C).
(§1) NOD, NOD.scid, BDC2.5 TCR transgenic NOD mice (‘BDC2.5-NOD’), NOD-β2m^null, C57BL/6 (‘B6’), B6-TRPV1^null, NOR NOD×B6 Idd4 congenic mice (NOD.B6-(D11Nds1-D11Mit325)/DelJ) were obtained from the Jackson Laboratories (Bar Harbor, Me.) and maintained under approved protocols in our vivarium (NOD female diabetes incidence: 85-90%). […] Control mice (NOD^ctrl) received 20 μL vehicle (10% ethanol, 10% Tween, 80% saline). In adoptive transfer experiments, splenocytes from 4-6 diabetic NOD females were pooled and 10^7 cells/mouse were injected (100 μL i.v.) into irradiated (300 rad) 6- to 8 wk-old NOD.scid recipients. Diastix strips were used to screen for glucosuria (Bayer HealthCare), diabetes was confirmed by diabetic blood glucose measurements on 2 consecutive days (>13.8 mM/l; SureStep, Life Technologies Inc., Burnaby, British Columbia, Canada).

TRPV1^+ neurons [1] = assay: Neonatal capsaicin treatment of diabetes-prone NOD mice: insulitis and diabetes development; format: in vivo
Source text: Using immunofluorescence, it was observed that murine islets are associated with meshworks of TRPV1^+ fibers (FIG. 1a). TRPV1 was undetectable in endocrine islet cells by immunofluorescence (FIG. 1a, b) and by RT-PCR of purified NOD islets (FIG. 9). based on this evidence of islet innervation by TRPV1^+ primary afferent sensory neurons, we investigated their possible role in T1D pathogenesis, using neonatal treatment of diabetes-prone NOD mice with capsaicin to permanently remove these neurons (Caterina and Julius, 2001; Jancso et al., 1977). Two day-old NOD mice received capsaicin (50 mg/kg, s.c.) or vehicle (NOD^caps, NOD^ctrl). […] We confirmed the lack of TRPV1 expression in NOD^caps mice, using immunofluorescence (FIG. 1a, b, TRPV1 green), Western blots (8, 12 & 20 wk), and standard hot-plate testing in randomly selected 5-6 wk old or in diabetic animals (FIG. 1c).
as §1
Frozen murine pancreas sections were fixed in 4% paraformaldehyde, blocked with 5% normal donkey serum (Jackson), and stained with polyclonal rat or goat antibodies against GFAP (Signet Pathology Systems, Dedham, Mass.), polyclonal rabbit anti-TRPV1 (Oncogene) or guinea-pig antibody against insulin (DAKO, Carpinteria, Calif.). Bound antibodies were detected with biotinylated donkey anti-guinea pig or rat IgG (1:200, Jackson), Streptavidin AlexaFluor 546 or 633 (1:300, Molecular Probes, Eugene, Oreg.), and FITC conjugated donkey anti-rabbit IgG (1:25, Jackson). […] TRPV1 staining was performed on snap-frozen sections of NOD female pancreas with an overnight incubation of primary antibody at 4° C. To score insulitis severity, pancreata were fixed in 10% buffered formalin for a minimum of 24 hr. Histological sections were stained with hematoxylin and eosin and three blinded observers scored at the following scale: 0, normal islet; 1, peri-insulitis or encroachment of <25% of the islet surface area; 2, infiltration of 25-50% of the islet surface area; 3, infiltration of >50% of the islet surface area (Winer et al., 2003). Spleen and lymph node cells were stained with either 2 nM PE-conjugated NRP-V7/H-2K^d or TUM/H-2K^d tetramers, the latter a negative control, in FACS buffer (1% v/v FBS, 0.1% w/v NaN3 in PBS) at 4° C. for 1 hr, followed by staining with FITC-conjugated anti-CD8 mAb (clone 53-6.7; […]) and PerCP-conjugated anti-B 220 Ab (clone RA6-3B2; […], both from BD Pharmingen). Tetramer positivity was analyzed on gated CD8+B220− cells and reported as percentage of cells binding the NRP-V7/H-2K^d tetramer minus the percentage of cells binding the negative control, TUM/H-2K^d tetramer.

TRPV1^+ neurons [2] = assay: Systemic and pancreatic T cell development and function in NOD^caps versus NOD^ctrl mice; format: in vivo
Procedure: Delayed type hypersensitivity (DTH): […] Abdomens were shaved and 100 μl of the allergen were applied. 6 d later, the baseline thickness of right ears were measured by gauge before application of 10 μl 1% TNCB in oil or carrier only. Ear thickness was re-measured in sensitized and naïve animals 24 hr later. […] Calbiochem, San Diego, Calif.) were purchased, other antigens were previously generated and described (Winer et al., 2003). After 72 hrs, cultures were pulsed (1 μCi, [3H]thymidine/18 hrs) and counted by liquid scintillation. Lymph node assays were similar, but used 2×10^5 lymph node cells plus 2×10^5 irradiated (1,100 rad), syngeneic splenocytes/well. […] Bound antibodies were detected with biotinylated donkey anti-guinea pig or rat IgG (1:200, Jackson), Streptavidin AlexaFluor 546 or 633 (1:300, Molecular Probes, Eugene, Oreg.), and FITC conjugated donkey anti-rabbit IgG (1:25, Jackson). […] Histological sections were stained with hematoxylin and eosin and three blinded observers scored at the following scale: 0, normal islet; 1, peri-insulitis or encroachment of <25% of the islet surface area; 2, infiltration of 25-50% of the islet surface area; 3, infiltration of >50% of the islet surface area (Winer et al., 2003). […] Live events were collected based on forward- and side-scatter profiles on a FACScan flow cytometer (BD) and analyzed using FlowJo software (Stanford University).

TRPV1 = assay: Capsaicin-evoked Ca^2+ responses in dorsal root ganglion neurons; format: cell-based, NOD and NOR mice; conditions: NOD DRG neurons compared with NOR, p<0.05
Procedure: Dorsal root ganglia from male NOD, NOR mice and NOD.B6.Idd4-congenic (5-10 wk) were isolated and cultured in F12 medium (Invitrogen) with 10 ng/mL nerve- and 10 ng/mL glial-derived nerve growth factor. Cultures were used 3-5 d after plating. The Ca^2+-sensitive fluorophore, fura-2 (Molecular Probes, Eugene, Oreg.), was used to assess [Ca^2+]i by ratiometric measurement. Excitation (340 and 380 nm) was generated by a xenon arc lamp and passed through a high-speed, computer-controlled, variable-wavelength monochromator. This light was transmitted to the recording dish via a fiberoptic cable. Emitted light was directed through a 510 nm bandpass filter and detected by an intensified CCD camera. Image data were analyzed off-line. Each 340 nm image was divided, on a pixel-by-pixel basis, by the corresponding 380 nm image, producing a ratio. Averaged values of the ratios within each region of interest were plotted as a function of time.

[3] = test system: BDC2.5 T cell receptor transgenic T cells; assay: CFSE dye dilution in vivo clonal expansion of BDC2.5 T cells in pancreatic lymph nodes; set-up: species or system NOD mice
Procedure: For dye dilution in vivo clonal expansion studies, splenic CD4+ T-cells from NOD-BDC2.5 females were isolated by negative selection (Stemcell Technologies, Vancouver, Canada) and incubated with 2.5 μM CFSE (10′/37° C., Molecular Probes, Eugene, Oreg.) in PBS. Prediabetic (12 wk) NOD females pretreated 12 hr prior with substance P or saline, were injected i.v. with 3×10^6 CFSE-labeled CD4+ T-cells in sterile PBS.
Lymphocytes from thymus, pancreatic/axillary lymph nodes and spleen were stained with FITC, PE, and APC conjugated antibodies to CD3, CD4, CD8, CD44, CD25, CD69 CD62L and FoxP3 (BD Pharmingen, not all combinations are shown). NK-1R and Vβ4 antibodies were obtained from Novus Biologicals (Littleton, Colo.) and Cedarlane (Hornby, Canada), respectively. Live events were collected based on forward- and side-scatter profiles on a FACScan flow cytometer (BD) and analyzed using FlowJo software (Stanford University).

[4] = test system: activated CD4+ NOD T cells; assay: sP response of activated CD4+ NOD T cells in vitro (proliferation); format: cell-based, NOD mice
Procedure: Splenocytes from 3- to 24 wk-old NOD females were cultured (4×10^5 cells/well) in AIM V serum-free medium (Life Technologies) containing antigen (0.002-50 μg/ml), baculovirus-derived human GAD65 (Diamyd Diagnostics, Stockholm, Sweden), human GFAP (>90% pure) and bovine S100b (>98% pure; Calbiochem, San Diego, Calif.) were purchased, other antigens were previously generated and described (Winer et al., 2003). After 72 hrs, cultures were pulsed (1 μCi, [3H]thymidine/18 hrs) and counted by liquid scintillation. Lymph node assays were similar, but used 2×10^5 lymph node cells plus 2×10^5 irradiated (1,100 rad), syngeneic splenocytes/well. To normalize pooled data, we calculated a stimulation index (SI, cpm antigen stimulated/medium control), background counts were <1500 cpm in spleen cell and <1000 cpm in lymph node cultures. In some proliferation studies, plate-bound anti-CD3 (0.001-3 μg/ml; BD PharMingen) and anti-CD28 (0.2 μg/ml; BD PharMingen) were used to stimulate CD4+ T-cells negatively selected from NOD β2m^null splenocytes in the presence of substance P.

[5] = test system: islet T cell infiltration; assay: Intra-arterial pancreas injection of substance P in prediabetic NOD mice (insulitis); format: in vivo
Procedure: (§2) Animals were anaesthetized with isoflurane and the aorta developed with minimal trauma to ligate above and below the celiac artery. A 32G needle was used to inject Evans Blue (3 mg/kg/100 μl; Sigma), substance P (2 nmol/100 μl; Sigma) or saline into the aorta just prior to the celiac branching. Ligations are released after closure of the injection site. For insulitis studies, pancreata from treated mice were obtained 48-72 hr after pancreas injection treatment and histology performed. In diabetes reversal experiments, newly diagnosed NOD female mice were treated with either saline or substance P and followed without exogenous insulin treatment.
Frozen murine pancreas sections were fixed in 4% paraformaldehyde, blocked with 5% normal donkey serum (Jackson), and stained with polyclonal rat or goat antibodies against GFAP (Signet Pathology Systems, Dedham, Mass.), polyclonal rabbit anti-TRPV1 (Oncogene) or guinea-pig antibody against insulin (DAKO, Carpinteria, Calif.). Bound antibodies were detected with biotinylated donkey anti-guinea pig or rat IgG (1:200, Jackson), Streptavidin AlexaFluor 546 or 633 (1:300, Molecular Probes, Eugene, Oreg.), and FITC conjugated donkey anti-rabbit IgG (1:25, Jackson). […] TRPV1 staining was performed on snap-frozen sections of NOD female pancreas with an overnight incubation of primary antibody at 4° C. […]

[6] = Diabetes reversal after pancreatic i.a. substance P in newly diabetic NOD mice; format: in vivo
Procedure: as §2

[7] = systemic (i.v.) injection of the same sP dose
[8] = mice that failed to reverse hyperglycemia, i.a. sP

COc1cc(CNC(=O)CCCC/C=C/C(C)C)ccc1O [capsaicin]
serum glucose levels after i.p. glucose challenge (TRPV1^+ sensory neurons; 10-12 wk old NOD.scid^caps versus NOD.scid^ctrl, p=0.004): significantly reduced | insulin production after glucose challenge (TRPV1^+ sensory neurons; NOD.scid^caps versus NOD.scid^ctrl): significantly less insulin production | tolerability of neonatal capsaicin treatment (TRPV1^+ neurons [1]; 50 mg/kg s.c. in 2 day-old mice): viable, fertile, without abnormalities in growth or gross tissue structure, including pancreas; also recorded: no signs of adverse effects | islets free of lymphocytes (TRPV1^+ neurons [1]; NOD^caps mice (capsaicin 50 mg/kg s.c. at 2 days old), by age 20 wk): More than 70% | islet infiltrations compared with NOD^ctrl (TRPV1^+ neurons [1]; NOD^caps mice, p<0.0001): significantly reduced | reduction in final diabetes incidence (TRPV1^+ neurons [1]; neonatal capsaicin treatment, 35 wk plus next 12 wk, n=52 mice/group, p<0.0001): about 80% | onset of diabetes (TRPV1^+ neurons [1]; neonatal capsaicin treatment, p=0.0002): delayed the onset of diabetes | fraction of NOD^caps mice in which infiltrated islets were entirely absent (TRPV1^+ neurons [1]; serial sectioning): one third | regulatory T cell compartment in pancreatic lymph nodes (TRPV1^+ neurons [2]; NOD^caps mice, beyond 12-16 wk of age): maintained their regulatory T cell compartment | CD8+ and activated CD8+ CD69+ effector T lymphocytes in pancreatic lymph node tissue (TRPV1^+ neurons [2]; NOD^caps versus NOD^ctrl): significantly reduced proportions and absolute numbers | drug concentration required for maximum Ca^2+ response, NOD versus NOR DRG neurons (TRPV1): 10 fold

substance P
expansion in pancreatic lymph nodes of BDC2.5 cells pretreated in vitro ([3]; cells in vitro pretreated with sP overnight, p=0.0045): reduced the ability of these cells to expand in pancreatic lymph nodes | cellularity and clonal expansion of BDC2.5 T cells in pancreatic lymph nodes ([3]; pancreatic i.a. sP 12-16 hr before transfer, analyzed 4 days later, dye dilution, p=0.003): reduced cellularity and clonal expansion | expansion of BDC2.5 T cells in pancreatic lymph nodes, systemic injection [3, 7]: had no effect on expansion | cell proliferation and survival [4]: abrogated cell proliferation and survival in a dose-dependent fashion | islets free of T cell infiltration ([5]; prediabetic NOD, 12 wk of age, within 2d after i.a. sP injection (2 nmoles/kg)): about 80% | effect on islet T cell infiltration, systemic injection [5, 7]: did not have similar effects | body weight [6, 8]: preventing the progressive loss of body weight | insulin sensitivity in non-responding mice [6, 8]: improved insulin sensitivity | normalization of blood glucose levels ([6]; newly diabetic NOD mice, 2-3 d after diagnosis, pancreatic i.a. sP, without insulin therapy): over half of the i.a. injected diabetics normalized blood glucose levels | insulin sensitivity ([6]; raising pancreatic sP levels, diabetic NOD mice): dramatically enhanced insulin sensitivity | time fasting blood glucose remained at near normal levels ([6]; responding mice): 2-8 wk
